EP1379634B1 (THE UNIVERSITY OF GEORGIA RESEARCH FOUNDATION, INC., priority 2001, dated 2002)
Residues, ends and D or L forms follow the SMILES beside them. *: point of attachment. Cbz = O=C(OCc1ccccc1)*; CH2F = FC*

Experiments:
[1] = tested on: Taenia crassiceps cysts; assay: Short-term protection of BALB/c mice from cysticercosis infection; type: in vivo; conditions: repeat study, BALB/c mice
[2] = tested on: BALB/c mice; assay: Observation of side effects in treated mice; type: in vivo
[3] = tested on: Taenia crassiceps cysts; assay: Scanning electron microscopy of cyst surfaces removed from treated mice; type: in vivo; conditions: cysts removed from treated BALB/c mice
Description: • Figure 1. Free energy diagrams for various profiles and scenarios of enzyme catalysis; from Murphy, 1995. Biochemistry. 34(14):4507-4510: (a) Free energy diagrams for different concentrations of substrate S in catalyzed and in uncatalyzed reactions. Left panel: Profile I. S<Km such that enzyme is in a "loose" binding configuration with substrate. Right panel: Profile II. S>Km such that the enzyme is in a "tight" binding configuration with the substrate. Nomenclature below the figure indicates derivation of various free energy constants which are referred to in the text. […] In this scenario, the transition state is decreased from TSC1 to TSC2 resulting in a net increase of ΔGB from situation 1 to situation 2. […] Since ΔGES is unchanged in this plot, 100% of the additional binding energy is utilized for catalysis. This property and the increase in ΔAGb is the definition of a catalytic event driven by transition state stabilization, with the latter being the defining catalytic parameter; (c) free energy diagram for catalysis driven by ground state destabilization for a Profile II scenario where ES is decreased and TSC is not changed. From the left panel to the right panel, ES is decreased, whereas TS remains unchanged. Consequently, ΔΔGb remains constant although catalysis is noted (thus the free energy of enzyme/transition state binding is unchanged). […]

[4] = tested on: normal BALB/c mouse splenocytes; assay: Splenocyte proliferation (3H-thymidine incorporation) with or without Con-A; type: cell-based
[5] = target: Cathepsin D (Homo sapiens, UniProt P07339); assay: Selectivity test (Steps VI and IX), Cathepsin D; type: biochemical; conditions: vehicle 4 X 10^-5 M; pH 7.1, substrate Z-RGFFP-AFC; 40 µM
Sequence of Cathepsin D (P07339 65-412): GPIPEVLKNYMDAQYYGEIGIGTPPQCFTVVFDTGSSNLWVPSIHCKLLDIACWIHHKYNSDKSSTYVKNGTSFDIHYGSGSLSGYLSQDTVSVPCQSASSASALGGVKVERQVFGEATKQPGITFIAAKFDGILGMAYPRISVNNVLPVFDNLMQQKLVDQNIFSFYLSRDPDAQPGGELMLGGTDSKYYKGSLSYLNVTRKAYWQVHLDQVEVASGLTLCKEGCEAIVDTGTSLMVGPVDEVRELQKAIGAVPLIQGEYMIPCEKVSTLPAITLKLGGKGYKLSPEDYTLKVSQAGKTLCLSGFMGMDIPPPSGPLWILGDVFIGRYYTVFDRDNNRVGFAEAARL
Procedure: In order to perform the assay, the vehicle (for Step VI) or inhibitor (for Step IX) were incubated with the appropriate substrate in the correct assay buffer and allowed to equilibrate. Subsequently, the protease was added, and the assay was allowed to incubate for an appropriate time. The concentrations used in this experiment were as follows: Vehicle was set up at 4 X 10^-5 M in final assay buffer; Inhibitor was set up at 3 X 10^-10 M in the final assay buffer. Preferably the dosages employed should be the minimal amount of vehicle or inhibitor necessary to induce inhibition. […] Substrates were set up based upon the preferred substrate for cleavage of the particular enzyme.
Positive controls were set up similarly as described for test controls, except that a solvent blank was added in substitution for the inhibitor or vehicle (in a volume equal to the volume of inhibitor or vehicle addition). All of the inhibitors and vehicles could be dissolved in dimethylsulfoxide (DMSO), and therefore, this was the solvent of choice. Negative controls were set up by adding the inhibitor or vehicle and the preferred substrates in a tube without the protease. […]
Percent inhibition was calculated as: %Inhibition = ((AFC positive for "SI"−AFC negative for "SI")−(AFC test−AFC negative for "SI"))/(AFC positive for "SI"−AFC negative for "SI") × 100 [formula] […]

Molecule | protection from cysticercosis infection, subsequent identical prophylactic experiment [1] | side effects in treated animals ([2]; long or short-term period) | side effects in treated mice ([2]; long-term studies) | side effects / inhibitor toxicity in treated mice ([2]; mouse, in vivo) | Immune cells observed by SEM on cyst surfaces [3] | proliferative response (3H-thymidine incorporation) ([4]; inhibitor alone) | toxicity to splenocytes in vitro ([4]; preliminary results) | % inhibition [5] [%]
CC(C)C[C@H](NC(=O)OCc1ccccc1)C(=O)N[C@@H](CC(C)C)C(=O)N[C@@H](Cc1ccc(O)cc1)C(=O)CF [Z-LLY-FMK, Z-Leu-Leu-Tyr-FMK] (Cbz-Leu-Leu-Tyr-CH2F) | 75%-90% | only negligible side effects | no side effects | no mice showed effects of inhibitor toxicity | presence of adherent immune cells | do not induce a proliferative response | nontoxic | –
Mu-Leu-Tyr-AFC [Mu-LY-AFC] | – | – | – | – | – | – | – | 0
